# Values quoted from earlier work in patent publication US20100087769A1, “BIOCIDIC MEDICAL DEVICES, IMPLANTS AND WOUND DRESSINGS” (OPLON B.V., priority 2007, published 2010).
# “Also recorded” adds a separate entry of the source. Where two headings read alike, the source gives them in different places.
# What was measured:
# [1] = tested on: aerobic gram-negative bacilli, P. aeruginosa; details: spectrum as listed in the cell
# [2] = not given; remark: listed apart in the source
# [3] = tested on: Aspergillus or Fusarium spp.; details: powder, 6 million units/g; four burn patients
# [4] = tested on: other Candida spp. and fungi
# [5] = topical
# MRSA = details: topical; 1% silver sulfadiazine, 2% mupirocin, 2% fusidic acid
compound,measurement,setting,value
NCc1ccc(S(N)(=O)=O)cc1 [Mafenide acetate],Major toxicity,in vivo,Metabolic
same,Antibacterial activity,[1],Broad spectrum against
same,reduction in mortality,[2]; burns of 40 to 79% TBSA,greater than 10%
same,effect on mortality,[2]; patients with smaller or much larger burn injuries,only a minimal effect
C[C@@H]1[C@H](O)[C@@H](C)/C=C/C=C/CC/C=C/C=C/C=C/C=C/C(O[C@H]2O[C@H](C)[C@@H](O)[C@H](N)[C@@H]2O)CC2O[C@](O)(CC(O)C(O)CCC(O)CC(O)CC(O)CC(=O)O[C@H]1C)CC(O)C2C(=O)O (stereo partly drawn) [Nystatin],treatment of angioinvasive fungal infections,[3],effective
same,concentration needed to inhibit,[4],6.25 µg/mL
same,concentration that inhibits,Candida albicans,3 µg/mL
O=[N+]([O-])[O-].[Ag+] [Silver nitrate],Major toxicity,topical,Electrolyte
same,Antibacterial activity,[1],Bacteriostatic against; also recorded: limited antifungal
same,Eschar penetration,[5],None
CC(=O)O[C@H]1C[C@@]2(C)[C@@H](C[C@@H](O)[C@H]3[C@@]4(C)CC[C@@H](O)[C@@H](C)[C@@H]4CC[C@@]32C)/C1=C(\CCC=C(C)C)C(=O)O [fusidic acid],reducing local wound bacterial counts and preventing systemic infection,MRSA,equally effective
"C/C(=C\C(=O)OCCCCCCCCC(=O)O)C[C@@H]1OC[C@H](C[C@@H]2O[C@H]2[C@@H](C)[C@H](C)O)[C@@H](O)[C@H]1O [mupirocin, pseudomonic acid A]",reducing local wound bacterial counts and preventing systemic infection,MRSA,equally effective
